Assay results published in patent US12551482B2, “Aurora kinase inhibitors” (The Regents of the University of California, priority 2013, dated 2026).
“Also recorded” adds a separate entry of the source. Like-named read-outs stand apart in the source and are kept apart here.

Tests used:
[1] = target: T1, MYCN-Aurora A complex (Homo sapiens, UniProt O14965); test: Pulldown of MYCN and immunoblot for Aurora A; format: cell-based; conditions: MYCN-amplified IMR32 cells, 4 hrs MG-132, 2 hrs drug, increasing concentrations
T1 construct: Representative immunoprecipitation of MYCN and immunoblots from MYCN-amplified IMR32 cells; endogenous in cells
T1 sequence (O14965 whole entry, one chain of several): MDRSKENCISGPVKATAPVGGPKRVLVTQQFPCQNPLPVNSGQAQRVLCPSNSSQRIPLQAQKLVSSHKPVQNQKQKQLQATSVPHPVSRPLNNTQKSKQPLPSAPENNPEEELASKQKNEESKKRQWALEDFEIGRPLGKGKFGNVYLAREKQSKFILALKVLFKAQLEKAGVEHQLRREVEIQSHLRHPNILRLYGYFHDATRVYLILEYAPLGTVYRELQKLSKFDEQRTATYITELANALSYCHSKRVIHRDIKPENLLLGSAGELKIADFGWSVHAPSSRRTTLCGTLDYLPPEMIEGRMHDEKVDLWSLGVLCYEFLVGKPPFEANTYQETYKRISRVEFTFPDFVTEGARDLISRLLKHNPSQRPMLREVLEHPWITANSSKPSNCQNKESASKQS

[2] = system: MYCN-MAX; test: Immunoprecipitation of MYCN and immunoblot for MAX; format: cell-based; conditions: SK-N-BE(2) cells, 2 hrs
Experimental: Pulldowns were performed with anti-N-Myc antibody (Santa Cruz, SC-53993) and Protein G sepharose beads (Sigma-Aldrich, P3296). Immunoblots were performed as described above.

[3] = system: c-MYC; test: c-MYC protein by immunoblot in c-MYC expressing cancer cell lines; format: cell-based
[4] = system: RPMI-7951; test: Cancer cell line profiling, Genomics of Drug Sensitivity Project
[5] = system: IGR-1; test: as above; conditions: Homo sapiens, IGR-1, read-out: CD532 EC50 (uM)
[6] = system: MEL-HO; test: as above; conditions: read-out: CD532 EC50 (uM)
[7] = system: SK-MEL-1; test: as above; conditions: Homo sapiens, SK-MEL-1, read-out: CD532 EC50 (uM)
[8] = system: SK-MEL-30; test: as above; conditions: Homo sapiens, SK-MEL-30, read-out: CD532 EC50 (uM)
[9] = system: SNU-1; test: as above; conditions: Homo sapiens, SNU1, read-out: CD532 EC50 (uM)
[10] = system: MKN1; test: as above; conditions: Homo sapiens, MKN-1, read-out: CD532 EC50 (uM)
[11] = system: MKN45; test: as above
[12] = system: MKN28; test: as above; conditions: Homo sapiens, MKN-28, read-out: CD532 EC50 (uM)
[13] = system: HSC-39; test: as above; conditions: read-out: CD532 EC50 (uM)
[14] = system: SCH; test: as above; conditions: read-out: CD532 EC50 (uM)
[15] = system: CAL-62; test: as above; conditions: Homo sapiens, CAL-62, read-out: CD532 EC50 (uM)
[16] = system: PE/CA-PJ15; test: as above; conditions: read-out: CD532 EC50 (uM)
[17] = system: SAT; test: as above; conditions: read-out: CD532 EC50 (uM)
[18] = system: OSC-20; test: as above; conditions: read-out: CD532 EC50 (uM)
[19] = system: NH-12; test: as above; conditions: read-out: CD532 EC50 (uM)
[20] = system: JHH-7; test: as above; conditions: JHH7, read-out: CD532 EC50 (uM)
[21] = system: huH-1; test: as above; conditions: Homo sapiens, HuH-1, read-out: CD532 EC50 (uM)
[22] = system: A101D; test: as above; conditions: Homo sapiens, read-out: CD532 EC50 (uM)
[23] = system: ACN; test: as above; conditions: read-out: CD532 EC50 (uM)
[24] = system: IMR-5; test: as above; conditions: Homo sapiens, IMR-5, read-out: CD532 EC50 (uM)
[25] = system: LB771-HNC; test: as above; conditions: read-out: CD532 EC50 (uM)
[26] = system: LOXIMVI; test: as above
[27] = system: NB5; test: as above; conditions: read-out: CD532 EC50 (uM)
[28] = system: KLE; test: as above; conditions: Homo sapiens, read-out: CD532 EC50 (uM)
[29] = system: HPAC; test: as above; conditions: Homo sapiens, read-out: CD532 EC50 (uM)
[30] = system: Hs, 766T; test: as above; conditions: Hs766T, read-out: CD532 EC50 (uM)

## O=C(Nc1ccc(Nc2nccc(Nc3cc(C4CCCC4)[nH]n3)n2)cc1)Nc1cccc(C(F)(F)F)c1 [CD532, 1-(4-((4-((5-cyclopentyl-1H-pyrazol-3-yl)amino)pyrimidin-2-yl)amino)phenyl)-3-(3-(trifluoromethyl)phenyl)urea]
[1]
  MYCN-Aurora A interaction: complete and dose-dependent loss of Aurora A/MYCN interaction; also recorded: dose-dependent and complete dissociation of the MYCN-Aurora A complex
[2]
  MYCN-MAX binding: did not affect MYCN-MAX binding
[3]; RKO colon cancer cell line
  c-MYC protein: effects loss of c-MYC protein
[3]; SUM142 breast cancer cell line
  c-MYC protein: effects loss of c-MYC protein
[3]; SUM149 (ER−/PR−) breast cancer cell line
  c-Myc protein: loss of c-Myc
[3]; c-MYC-translocated ML-60 leukemia cell line
  c-MYC protein: effects loss of c-MYC protein
[4]; Homo sapiens, RPMI-7951, read-out: CD532 EC50 (uM), RPMI-7951 cell line, Skin
  EC50: 1.06 µM
[4]; read-out: CD532 EC50, RPMI-7951 cell line, Skin
  EC50: 0.952 µM
[5]
  EC50: 0.27 µM
[6]
  EC50: 0.411 µM
[7]
  EC50: 0.649 µM
[8]
  EC50: 0.323 µM
[9]
  EC50: 0.158 µM
[10]
  EC50: 0.86 µM
[11]; Homo sapiens, MKN-45, read-out: CD532 EC50 (uM), MKN45 cell line, Stomach
  EC50: 0.456 µM
[11]; read-out: CD532 EC50, MKN45 cell line, Stomach
  EC50: 0.26 µM
[12]
  EC50: 10.1 µM
[13]
  EC50: 0.103 µM
[14]
  EC50: 1.24 µM
[15]
  EC50: 0.589 µM
[16]
  EC50: 1.9 µM
[17]
  EC50: 1.19 µM
[18]
  EC50: 1.23 µM
[19]
  EC50: 0.37 µM
[20]
  EC50: 0.766 µM
[21]
  EC50: 1.38 µM
[22]
  EC50: 0.429 µM
[23]
  EC50: 0.884 µM
[24]
  EC50: 0.0071 µM
[25]
  EC50: 0.916 µM
[26]; Homo sapiens, LOX IMVI, read-out: CD532 EC50 (uM), LOXIMVI cell line, Skin
  EC50: 0.732 µM
[26]; read-out: CD532 EC50, LOXIMVI cell line, Skin
  EC50: 0.384 µM
[27]
  EC50: 0.761 µM
[28]
  EC50: 2.99 µM
[29]
  EC50: 2.5 µM
[30]
  EC50: 2.45 µM
